Experimental findings from US8765746B2 (Millennium Pharmaceuticals, Inc., priority 2010, dated 2014) are described below.

Holding throughout (type): biochemical
The target of one test is T1, PI3Kbeta (Homo sapiens, UniProt P42338).
T1 construct: His (N); host or cells: SF9 insect cells (baculovirus)
Nature of the test: Human PI3K beta enzyme assay (HTRF, as for PI3K alpha). The conditions noted are these: at 1.11 μM; for inhibition at 1.11 µM: read-out: PI3Kbeta % inh. The procedure, abridged:
(§1)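 N-His p110β/δ co-expressed with untagged p85 in Sf9, p110γ alone. Enzyme 5.25 nM (β), 0.75 nM (δ), 5 nM (γ), with ATP 25 uM and di-C8 PI(4,5)P2 3.5 uM (added-solution levels), pH 7.00, 30 min RT. HTRF read-out: biotin-PIP3, GST-GRP-1 PH domain, Eu anti-GST, streptavidin-XL.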

The next test concerns the target T2, VPS34 (Homo sapiens, UniProt Q8NEB9).
T2 construct: GST (N); host or cells: SF9 insect cells (baculovirus)
Nature of the test: Human VPS34 enzyme assay (Adapta Universal Kinase Assay). The following applies: for inhibition at 1.11 µM: 1 h, read-out: VPS34 % ihn; for VPS34 % ihn: at 1.11 μM. The procedure, abridged:
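Human VPS34, N-terminally GST-tagged and baculovirus-expressed in Sf9 cells. Solution with 20 uM ATP and 200 uM PI-PS added, then one with 5 nM enzyme (levels in each added solution), in buffer with 2 mM DTT and 2 mM MnCl2; 1 h at room temperature. ADP read by Adapta TR-FRET (Eu anti-ADP antibody, Alexa Fluor 647 tracer).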

The target of a further test is T3, PI3Kgamma (Homo sapiens, UniProt P48736).
T3 construct: His (N); host or cells: SF9 insect cells (baculovirus)
Nature of the test: Human PI3K gamma enzyme assay (HTRF, as for PI3K alpha). The following applies: for inhibition at 1.11 µM: read-out: PI3Kgamma % inh; for PI3Kgamma % inh: at 1.11 μM. The procedure, abridged:
as §1
For orientation: TR-FRET usually uses a lanthanide donor and a delayed reading to cut background.

The next test addresses T4, PI3Kdelta (Homo sapiens, UniProt O00329).
T4 construct: His (N); host or cells: SF9 insect cells (baculovirus)
The test is described as follows: Human PI3K delta enzyme assay (HTRF, as for PI3K alpha). The conditions noted are these: for inhibition at 1.11 µM: read-out: PI3Kdelta % inh; for PI3Kdelta % inh: at 1.11 μM. The procedure, abridged:
as §1

The target of the next test is T5, PI3Kalpha (Homo sapiens, UniProt P42336).
T5 construct: His (N); host or cells: SF9 insect cells (baculovirus)
T5 sequence (P42336 whole entry): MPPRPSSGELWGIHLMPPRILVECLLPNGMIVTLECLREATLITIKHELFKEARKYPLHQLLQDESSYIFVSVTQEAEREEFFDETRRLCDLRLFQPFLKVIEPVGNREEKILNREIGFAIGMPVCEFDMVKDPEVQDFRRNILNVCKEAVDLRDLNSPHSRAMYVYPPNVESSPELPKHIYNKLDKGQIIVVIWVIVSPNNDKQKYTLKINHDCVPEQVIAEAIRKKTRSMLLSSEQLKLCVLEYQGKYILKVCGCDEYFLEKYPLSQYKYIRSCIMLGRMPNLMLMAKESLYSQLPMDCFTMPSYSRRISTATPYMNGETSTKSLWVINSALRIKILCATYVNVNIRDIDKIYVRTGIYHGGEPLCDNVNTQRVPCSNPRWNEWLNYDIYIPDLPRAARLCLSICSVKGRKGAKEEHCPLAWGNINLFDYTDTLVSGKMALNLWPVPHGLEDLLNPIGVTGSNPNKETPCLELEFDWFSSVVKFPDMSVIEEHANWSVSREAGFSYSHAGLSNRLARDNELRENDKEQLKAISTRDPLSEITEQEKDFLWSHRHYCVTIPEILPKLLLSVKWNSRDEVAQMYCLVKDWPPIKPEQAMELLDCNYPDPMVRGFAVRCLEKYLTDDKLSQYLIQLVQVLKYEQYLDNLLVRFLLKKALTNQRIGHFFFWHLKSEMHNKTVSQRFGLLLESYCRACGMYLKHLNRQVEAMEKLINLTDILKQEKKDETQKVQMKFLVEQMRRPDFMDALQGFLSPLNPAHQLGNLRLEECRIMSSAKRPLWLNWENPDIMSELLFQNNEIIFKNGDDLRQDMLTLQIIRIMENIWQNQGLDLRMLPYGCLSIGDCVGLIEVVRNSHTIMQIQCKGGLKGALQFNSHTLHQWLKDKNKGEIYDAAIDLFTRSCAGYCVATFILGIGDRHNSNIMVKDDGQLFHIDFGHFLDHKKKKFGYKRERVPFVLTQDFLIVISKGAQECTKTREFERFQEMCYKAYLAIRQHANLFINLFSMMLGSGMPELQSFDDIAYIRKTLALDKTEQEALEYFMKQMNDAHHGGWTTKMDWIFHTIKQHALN
T5 sequence (P27986 whole entry partner): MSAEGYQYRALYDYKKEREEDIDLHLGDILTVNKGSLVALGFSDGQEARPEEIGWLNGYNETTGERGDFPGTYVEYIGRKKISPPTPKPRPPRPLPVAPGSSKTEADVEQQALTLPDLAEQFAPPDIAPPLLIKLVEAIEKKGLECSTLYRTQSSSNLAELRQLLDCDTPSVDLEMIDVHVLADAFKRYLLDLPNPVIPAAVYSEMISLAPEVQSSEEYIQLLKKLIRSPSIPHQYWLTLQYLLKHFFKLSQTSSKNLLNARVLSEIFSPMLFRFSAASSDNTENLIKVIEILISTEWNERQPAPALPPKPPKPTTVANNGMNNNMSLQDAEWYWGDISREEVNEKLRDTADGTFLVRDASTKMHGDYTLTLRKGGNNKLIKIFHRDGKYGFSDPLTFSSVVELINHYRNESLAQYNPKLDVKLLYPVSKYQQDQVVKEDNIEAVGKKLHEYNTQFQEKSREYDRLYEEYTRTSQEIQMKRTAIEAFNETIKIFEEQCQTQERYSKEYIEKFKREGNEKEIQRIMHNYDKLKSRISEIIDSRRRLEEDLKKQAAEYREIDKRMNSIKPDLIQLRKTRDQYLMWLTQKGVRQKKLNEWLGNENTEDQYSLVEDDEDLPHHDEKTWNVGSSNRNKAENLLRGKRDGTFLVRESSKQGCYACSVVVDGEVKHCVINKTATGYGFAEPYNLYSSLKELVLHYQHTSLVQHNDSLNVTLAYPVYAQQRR
The test is described as follows: Human PI3Kα enzyme assay (HTRF). The conditions noted are these: for inhibition at 1.11 µM: read-out: PI3Kalpha % inh; for PI3Kalpha % inh: at 1.11 μM. The procedure, abridged: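 His-tagged p110α co-expressed with p85 in Sf9 cells was reacted for 30 min at room temperature in pH 7.00 Hepes buffer with 10 mM MgCl2. Addition solutions held 25 uM ATP, 3.5 uM di-C8 PI(4,5)P2 and 0.4875 nM enzyme. The reaction was quenched with EDTA/biotin-PIP3 and detected by HTRF (GST-GRP-1 PH domain, streptavidin-XL, Eu anti-GST) after 1 h.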

T1 sequence (P42338 whole entry): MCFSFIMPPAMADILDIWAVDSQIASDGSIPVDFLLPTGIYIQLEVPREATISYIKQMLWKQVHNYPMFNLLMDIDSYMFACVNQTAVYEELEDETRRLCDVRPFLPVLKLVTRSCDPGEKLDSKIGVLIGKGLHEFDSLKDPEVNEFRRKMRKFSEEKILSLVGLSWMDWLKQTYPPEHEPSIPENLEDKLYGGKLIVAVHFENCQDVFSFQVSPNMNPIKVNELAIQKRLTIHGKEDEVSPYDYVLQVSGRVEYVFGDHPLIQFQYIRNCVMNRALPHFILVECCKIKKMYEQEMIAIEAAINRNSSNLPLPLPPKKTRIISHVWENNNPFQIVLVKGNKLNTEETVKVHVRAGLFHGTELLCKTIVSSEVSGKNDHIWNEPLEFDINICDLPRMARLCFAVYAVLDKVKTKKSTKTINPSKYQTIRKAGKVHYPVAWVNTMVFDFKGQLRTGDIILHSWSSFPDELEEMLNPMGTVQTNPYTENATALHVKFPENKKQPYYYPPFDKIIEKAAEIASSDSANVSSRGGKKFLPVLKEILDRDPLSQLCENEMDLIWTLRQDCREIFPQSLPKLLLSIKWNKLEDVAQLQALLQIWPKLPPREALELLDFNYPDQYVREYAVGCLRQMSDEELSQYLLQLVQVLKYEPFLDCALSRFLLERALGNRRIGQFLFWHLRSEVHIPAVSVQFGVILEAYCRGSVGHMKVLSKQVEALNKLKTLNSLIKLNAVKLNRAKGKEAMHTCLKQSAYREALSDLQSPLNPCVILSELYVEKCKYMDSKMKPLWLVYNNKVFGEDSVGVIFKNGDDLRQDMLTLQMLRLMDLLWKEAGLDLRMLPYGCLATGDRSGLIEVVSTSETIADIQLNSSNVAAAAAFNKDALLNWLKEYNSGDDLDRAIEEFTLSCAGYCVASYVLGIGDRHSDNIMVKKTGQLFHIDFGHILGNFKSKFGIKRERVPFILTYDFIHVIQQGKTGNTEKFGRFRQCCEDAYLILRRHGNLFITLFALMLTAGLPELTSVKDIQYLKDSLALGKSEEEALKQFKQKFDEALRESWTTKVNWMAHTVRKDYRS
T1 sequence (P27986 whole entry partner): as the sequence (P27986 whole entry partner) above
T2 sequence (Q8NEB9 whole entry): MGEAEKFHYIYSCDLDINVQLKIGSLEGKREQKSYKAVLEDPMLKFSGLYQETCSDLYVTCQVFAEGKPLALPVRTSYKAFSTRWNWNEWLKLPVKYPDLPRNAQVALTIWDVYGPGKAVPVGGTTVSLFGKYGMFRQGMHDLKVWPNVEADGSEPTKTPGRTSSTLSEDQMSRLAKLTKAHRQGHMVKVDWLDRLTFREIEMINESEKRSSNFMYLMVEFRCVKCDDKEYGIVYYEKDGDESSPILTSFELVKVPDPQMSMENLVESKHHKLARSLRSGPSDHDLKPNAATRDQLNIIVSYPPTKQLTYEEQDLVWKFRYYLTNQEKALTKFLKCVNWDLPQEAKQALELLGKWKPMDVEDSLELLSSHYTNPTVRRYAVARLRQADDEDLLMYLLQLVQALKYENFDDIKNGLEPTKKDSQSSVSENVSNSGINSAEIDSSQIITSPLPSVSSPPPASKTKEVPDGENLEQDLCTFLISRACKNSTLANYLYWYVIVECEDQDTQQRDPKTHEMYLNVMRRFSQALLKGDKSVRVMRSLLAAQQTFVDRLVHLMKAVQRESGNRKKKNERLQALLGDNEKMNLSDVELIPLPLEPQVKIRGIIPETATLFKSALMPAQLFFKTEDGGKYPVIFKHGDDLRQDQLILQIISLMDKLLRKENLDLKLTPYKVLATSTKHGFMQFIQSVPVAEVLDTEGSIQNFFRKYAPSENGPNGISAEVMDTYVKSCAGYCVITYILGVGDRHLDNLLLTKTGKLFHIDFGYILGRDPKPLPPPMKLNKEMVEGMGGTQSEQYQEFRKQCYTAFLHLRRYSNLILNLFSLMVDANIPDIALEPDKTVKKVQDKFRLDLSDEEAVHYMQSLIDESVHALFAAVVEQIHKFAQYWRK
T4 sequence (O00329 whole entry): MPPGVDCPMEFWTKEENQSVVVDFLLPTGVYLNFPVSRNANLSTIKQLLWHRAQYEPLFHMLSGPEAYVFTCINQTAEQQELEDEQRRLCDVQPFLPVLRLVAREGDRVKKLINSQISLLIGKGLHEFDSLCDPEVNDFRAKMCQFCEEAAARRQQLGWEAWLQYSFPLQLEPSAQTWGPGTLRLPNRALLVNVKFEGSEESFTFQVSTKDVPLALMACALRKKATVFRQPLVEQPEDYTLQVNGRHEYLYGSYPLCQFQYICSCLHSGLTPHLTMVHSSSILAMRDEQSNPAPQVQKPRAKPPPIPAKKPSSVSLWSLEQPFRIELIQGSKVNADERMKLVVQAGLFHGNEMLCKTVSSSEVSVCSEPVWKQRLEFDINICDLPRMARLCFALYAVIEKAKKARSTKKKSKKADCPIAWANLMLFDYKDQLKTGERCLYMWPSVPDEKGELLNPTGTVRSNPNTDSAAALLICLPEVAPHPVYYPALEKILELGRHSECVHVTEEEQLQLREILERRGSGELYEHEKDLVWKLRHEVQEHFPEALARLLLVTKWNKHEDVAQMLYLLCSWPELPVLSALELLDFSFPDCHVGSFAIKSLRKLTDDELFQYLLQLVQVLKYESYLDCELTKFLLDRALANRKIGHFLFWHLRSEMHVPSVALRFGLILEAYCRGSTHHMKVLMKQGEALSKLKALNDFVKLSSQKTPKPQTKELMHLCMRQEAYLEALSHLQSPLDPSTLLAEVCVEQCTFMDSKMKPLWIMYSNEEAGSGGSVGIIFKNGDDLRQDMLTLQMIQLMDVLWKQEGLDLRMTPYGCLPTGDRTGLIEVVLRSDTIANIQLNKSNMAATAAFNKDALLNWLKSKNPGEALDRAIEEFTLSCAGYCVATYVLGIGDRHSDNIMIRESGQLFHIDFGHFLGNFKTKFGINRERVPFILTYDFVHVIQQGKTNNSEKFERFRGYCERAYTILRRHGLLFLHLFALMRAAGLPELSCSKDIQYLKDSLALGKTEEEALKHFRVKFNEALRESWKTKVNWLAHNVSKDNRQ
T4 sequence (P27986 whole entry partner): as the sequence (P27986 whole entry partner) above

On to `CC1(C)CNC(=O)c2sc(-c3ccncc3)cc2C1c1ccc(Cl)cc1` (stereo not shown) [Compound 140, 4-(4-chlorophenyl)-5,5-dimethyl-2-pyridin-4-yl-4,5,6,7-tetrahydro-8H-thieno[2,3-c]azepin-8-one], for which the inhibition at 1.11 µM at PI3Kbeta was 98.3%; at VPS34, 19.5%; at PI3Kgamma, 18.1%; at PI3Kdelta, 67.9%; on PI3Kalpha, 8.99%.

Turning to `CN1CCC(c2ccc(Cl)cc2)c2cc(N3CCOCC3)sc2C1=O` (stereo not shown) [Compound 141, 4-(4-chlorophenyl)-7-methyl-2-(morpholin-4-yl)-4,5,6,7-tetrahydro-8H-thieno[2,3-c]azepin-8-one], the inhibition at 1.11 µM came to 77% on PI3Kbeta; 15.1% at VPS34; 6.82% at PI3Kgamma; 47.2% on PI3Kdelta; 4.69% at PI3Kalpha.

With `C[Si](C)(C)CCOCN1CC(O)(c2ccc3ccccc3c2)c2cc(N3CCOCC3)sc2S1(=O)=O` (stereo not shown) [Compound 144, 6-(morpholin-4-yl)-4-(2-naphthyl)-2-{[2-(trimethylsilyl)ethoxy]methyl}-3,4-dihydro-2H-thieno[3,2-e][1,2]thiazin-4-ol 1,1-dioxide], the inhibition at 1.11 µM was 101% on PI3Kbeta; 5.73% at VPS34; 67.8% at PI3Kgamma; 111% on PI3Kdelta; 41.6% on PI3Kalpha.

Turning to `O=C1CC(c2ccc(Cl)cc2)c2cc(N3CCOCC3)sc21` (stereo not shown) [Compound 145], on PI3Kbeta, the PI3Kbeta % inh was 101.66%. Besides, the VPS34 % ihn at VPS34 is reported as −1.31%. The compound also gave a PI3Kgamma % inh on PI3Kgamma of 50.45%. The PI3Kdelta % inh at PI3Kdelta was found to be 88.59%. Moreover, the PI3Kalpha % inh on PI3Kalpha was 18.36%.

In the case of `CC1(C)C(=O)c2sc(-c3ccncc3)cc2C1c1ccc(Cl)cc1` (stereo not shown) [Compound 147, 4-(4-chlorophenyl)-5,5-dimethyl-2-(pyridin-4-yl)-4H-cyclopenta[b]thiophen-6(5H)-one], the inhibition at 1.11 µM on PI3Kbeta amounted to 65.7%; at VPS34, 9.65%; on PI3Kgamma it was 2.45%; on PI3Kdelta it was 9.91%; on PI3Kalpha it was 3.15%.

Take `N#Cc1c(N2CCOCC2)sc2c1C(c1ccc(Cl)cc1)CNC2=O` (stereo not shown) [Compound 149]: the inhibition at 1.11 µM at PI3Kbeta came out at 108%; on VPS34, 4.85%; at PI3Kgamma, 29.1%; on PI3Kdelta, 80.9%; at PI3Kalpha, 46.1%.

With `N#Cc1c(N2CCOCC2)sc2c1C(c1c(F)cc(Cl)cc1F)CCNC2=O` (stereo not shown) [Compound 155], the inhibition at 1.11 µM on PI3Kbeta was determined as 113%; on VPS34 it was 11.6%; on PI3Kgamma, 42.6%; on PI3Kdelta, 104%; at PI3Kalpha, 64.7%.

`O=C1NCC(c2ccc(Cl)cc2)c2cc(-c3ccncc3)sc21` (stereo not shown) [Compound 156] showed a PI3Kbeta % inh on PI3Kbeta of 94.95%. The VPS34 % ihn at VPS34 is on record as −0.21%. Besides, the PI3Kgamma % inh at PI3Kgamma was 11.17%. The compound further gave a PI3Kdelta % inh at PI3Kdelta of 36.03%. At PI3Kalpha, this compound gave a PI3Kalpha % inh of 6.34%.

For `COc1cc(C2CC(=O)c3sc(N4CCOCC4)cc32)ccc1Cl` (stereo not shown) [Compound 158], the inhibition at 1.11 µM on PI3Kbeta stood at 108%; on VPS34, 5.41%; at PI3Kgamma, 65.3%; at PI3Kdelta it was 100%; on PI3Kalpha it was 12.9%.

Consider `CC1(C)C(=O)c2sc(N3CCOCC3)cc2C1c1ccc(Cl)cc1` (stereo not shown) [Compound 161, 4-(4-chlorophenyl)-5,5-dimethyl-2-morpholino-4H-cyclopenta[b]thiophen-6(5H)-one], for which the inhibition at 1.11 µM at PI3Kbeta is 92.6%; on VPS34, 10.8%; at PI3Kgamma it was 19.3%; at PI3Kdelta, 59.3%; at PI3Kalpha it was 12.1%.

Consider `CN1CC(c2ccc(Cl)cc2)c2cc(-c3ccncc3)sc2C1=O` (stereo not shown) [Compound 164], for which the inhibition at 1.11 µM at PI3Kbeta is 76.8%; on VPS34, 8.39%; at PI3Kgamma it was 5.01%; at PI3Kdelta it was 14%; on PI3Kalpha, -2.24%.

With `O=C1CC(c2ccc(Cl)c(Cl)c2)c2cc(N3CCOCC3)sc21` (stereo not shown) [Compound 171], the inhibition at 1.11 µM on PI3Kbeta was 106%; at VPS34, 16.8%; on PI3Kgamma it was 64.4%; on PI3Kdelta, 111%; at PI3Kalpha, 48.1%.

With `O=C1NCCC(c2ccc(Cl)c(Cl)c2)c2nc(N3CCOCC3)sc21` (stereo not shown) [Compound 173], the inhibition at 1.11 µM at PI3Kbeta came to 103%; on VPS34 it was 41.8%; on PI3Kgamma, 41.5%; on PI3Kdelta it was 110%; at PI3Kalpha, 24.1%.

Take `O=C1NCCC(c2ccc(Cl)cc2)c2nc(N3CCOCC3)sc21` (stereo not shown) [Compound 180, 8-(4-chlorophenyl)-2-(morpholin-4-yl)-5,6,7,8-tetrahydro-4H-[1,3]thiazolo[5,4-c]azepin-4-one]: the inhibition at 1.11 µM at PI3Kbeta worked out at 97.4%; at VPS34 it was 55.8%; at PI3Kgamma, 28.7%; at PI3Kdelta, 87.3%; on PI3Kalpha, 13.9%.

On to `O=C1CC(c2ccc(Cl)cc2)c2cc(-c3ccncc3)sc2N1` (stereo not shown) [Compound 182, 4-(4-chlorophenyl)-2-(pyridin-4-yl)-4,5-dihydrothieno[2,3-b]pyridin-6(7H)-one], for which the inhibition at 1.11 µM on PI3Kbeta came to 61.2%; on VPS34, 14%; at PI3Kgamma it was 3.51%; at PI3Kdelta it was 48.5%; on PI3Kalpha it was 2.99%.

Regarding `O=C1CC(c2ccc3ccccc3n2)c2cc(N3CCOCC3)sc21` (stereo not shown) [Compound 183], the inhibition at 1.11 µM at PI3Kbeta turned out to be 90.4%; on VPS34, 9%; on PI3Kgamma, 20.6%; on PI3Kdelta, 60.1%; on PI3Kalpha, 26.9%.

With `O=C1NCCC(c2ccc(Cl)c(Cl)c2)c2cc(N3CCOCC3)sc21` (stereo not shown) [Compound 185, 4-(3,4-dichlorophenyl)-2-(morpholin-4-yl)-4,5,6,7-tetrahydro-8H-thieno[2,3-c]azepin-8-one], the inhibition at 1.11 µM on PI3Kbeta turned out to be 106%; at VPS34, 47.8%; at PI3Kgamma, 53.4%; on PI3Kdelta, 110%; at PI3Kalpha it was 27.7%.

As for `O=C1CC(c2cccc(Cl)c2)c2cc(N3CCOCC3)sc21` (stereo not shown) [Compound 186], the inhibition at 1.11 µM on PI3Kbeta turned out to be 92.3%; on VPS34, 26.8%; on PI3Kgamma, 23.3%; on PI3Kdelta, 74.9%; on PI3Kalpha, 15.1%.

As for `N#Cc1c(N2CCOCC2)sc2c1C(c1ccc3ccccc3c1)CCNC2=O` (stereo not shown) [Compound 188], the inhibition at 1.11 µM turned out to be 117% on PI3Kbeta; 12.9% on VPS34; 62.3% on PI3Kgamma; 110% on PI3Kdelta; 102% at PI3Kalpha.

Take `CC1(C)NC(=O)c2sc(-c3ccncc3)cc2C1c1ccc(Cl)cc1` (stereo not shown) [Compound 191, 4-(4-chlorophenyl)-5,5-dimethyl-2-(pyridin-4-yl)-5,6-dihydrothieno[2,3-c]pyridin-7(4H)-one]: the inhibition at 1.11 µM was found to be 79.4% on PI3Kbeta; 7.04% at VPS34; 6.39% on PI3Kgamma; 30.3% on PI3Kdelta; 9.58% at PI3Kalpha.

For `CN1CC(c2ccc(Cl)cc2)c2cc(N3CCOCC3)sc2C1=O` (stereo not shown) [Compound 198, 4-(4-chlorophenyl)-6-methyl-2-morpholino-5,6-dihydrothieno[2,3-c]pyridin-7(4H)-one], the inhibition at 1.11 µM on PI3Kbeta was 86.6%; on VPS34, 8.01%; at PI3Kgamma it was 14.9%; on PI3Kdelta, 62.9%; at PI3Kalpha, 8.93%.

Compound `O=C1NCCC(c2ccc3ccccc3c2)c2nc(N3CCOCC3)sc21` (stereo not shown) [Compound 209] displayed a PI3Kbeta % inh on PI3Kbeta of 114.75%. In addition, the inhibition at 1.11 µM on VPS34 worked out at 42.1%; on PI3Kgamma, 49.5%; at PI3Kdelta, 110%. The compound also gave a PI3Kalpha % inh at PI3Kalpha of 81.32%.

As to `O=C1CCC(O)C(c2ccc(Cl)cc2)c2cc(-c3ccncc3)sc21` (stereo not shown) [Compound 210, 4-(4-chlorophenyl)-5-hydroxy-2-pyridin-4-yl-4,5,6,7-tetrahydro-8H-cyclohepta[b]thiophen-8-one], the results for the inhibition at 1.11 µM on PI3Kbeta, on PI3Kgamma and at PI3Kdelta were 73%, 5.88% and 34.6%, respectively. In addition, the VPS34 % ihn at VPS34 was −0.70%. Besides, on PI3Kalpha, the PI3Kalpha % inh turned out to be 5.17%.
